Columns and labels:
p38MAPKγ (MAPK12) = molecular target: T1, p38MAPKγ (MAPK12) (Homo sapiens, UniProt P53778); assay: p38 MAPKγ enzyme inhibition (Z-LYTE FRET); format: biochemical; details: Table 2A; read-out: IC50 Values for Enzyme Inhibition p38 MAPKγ
T1 construct: purchased Life Technologies
T1 sequence (P53778 1-367): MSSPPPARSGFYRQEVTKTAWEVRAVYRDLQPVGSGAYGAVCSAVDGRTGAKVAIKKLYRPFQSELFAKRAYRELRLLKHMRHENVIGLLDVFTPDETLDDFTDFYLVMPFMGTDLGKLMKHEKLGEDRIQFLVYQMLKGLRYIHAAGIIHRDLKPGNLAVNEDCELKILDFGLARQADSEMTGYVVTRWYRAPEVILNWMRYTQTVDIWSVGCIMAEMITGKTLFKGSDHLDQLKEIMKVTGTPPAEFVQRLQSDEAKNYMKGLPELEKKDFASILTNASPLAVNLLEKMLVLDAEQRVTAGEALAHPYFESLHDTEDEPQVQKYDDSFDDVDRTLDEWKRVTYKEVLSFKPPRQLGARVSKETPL
Method in brief: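 Enzyme (added at 800 ng/mL) was preincubated 2 h at RT with compound (solutions of 40 to 0.0012 μg/mL), then FRET peptide (8 μM) and ATP (400 μM), both as added, were reacted 1 h at RT. Protease development followed for 1 h; phosphorylation was read as the coumarin/fluorescein emission ratio.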

Syk = molecular target: T2, Syk (Homo sapiens, UniProt P43405); assay: Syk enzyme inhibition (Z-LYTE FRET); format: biochemical; details: Table 2A
T2 construct: purchased Life Technologies
Method in brief: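 Z-LYTE readout: coumarin-to-fluorescein ratio after 1 h protease cleavage of unphosphorylated peptide. Kinase reactions ran 1 h at RT with ATP stock at 800 μM (c-Src) or 60 μM (Hck, Syk), following 2 h compound preincubation over 0.0012–40 μg/mL; enzyme stocks 1000/1400/2000 ng/mL.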

[1] = test system: TNFα release in d-U937 cells; assay: LPS-induced TNFα release in d-U937 cells; format: cell-based; details: Homo sapiens, dU937; read-out: LPS Induced Release TNFα REC50 (dU937); further: relative to 10 µg/mL BIRB-796
Protocol: U937 cells, a human monocytic cell line, were differentiated into macrophage-type cells by incubation with PMA (100-200 ng/mL) for 48 to 72 h. Cells were pre-incubated with final […] concentrations of test compound for 2 h and were then stimulated with LPS (0.1 μg/mL; from E. coli: O111:B4, Sigma) for 4 h. The supernatant was collected for determination of TNFα and IL-8 concentrations by sandwich ELISA (Duo-set, R&D systems). […] The relative 50% effective concentration (REC50) was determined from the resultant concentration-response curve. The inhibition of IL-8 production was calculated at each concentration of test compound by comparison with vehicle control.

d-U937 cells = assay: Cell viability: MTT assay in differentiated U937 cells; format: cell-based, human; details: 10 μg/mL
Method in brief: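 Viability loss, calculated against 0.5% DMSO vehicle (gains reported negative), was measured by MTT reduction (1 h) and A550 after DMSO solubilisation. Compound exposure of d-U937 cells was 10 μg/mL final, for 24 h in 10% FCS or 4 h in 5% FCS RPMI1640.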

| Structure (SMILES) | IC50 (p38MAPKγ (MAPK12)) [µM] | IC50 (Syk) [µM] | EC50 [1] [µM] | MTT Assay Cell viability at time point indicated in d-U937 Cells, 4 h (d-U937 cells) | MTT Assay Cell viability at time point indicated in d-U937 Cells, 24 h (d-U937 cells) |
| --- | --- | --- | --- | --- | --- |
| COc1ccc(-n2nc(C(C)(C)C)cc2NC(=O)Nc2ccc(OCc3ccnc(Nc4cnccn4)c3)c3ccccc23)cn1 [Example 12] | 0.198 | > 16.2 | 0.0168 | − (−ve and +ve indicate the value is below and above, respectively, the no significant effect threshold defined as 30% inhibition at 10 μg/mL at the time point indicated) | − (−ve and +ve indicate the value is below and above, respectively, the no significant effect threshold defined as 30% inhibition at 10 μg/mL at the time point indicated) |
| CC(C)c1ccc(-n2nc(C(C)(C)C)cc2NC(=O)Nc2ccc(OCc3ccnc(Nc4cnccn4)c3)c3ccccc23)cc1 [Example 41] | > 16 | 6.13 | 0.003 | − (−ve and +ve indicate the value is below and above, respectively, the no significant effect threshold defined as 30% inhibition at 10 μg/mL at the time point indicated) | − (−ve and +ve indicate the value is below and above, respectively, the no significant effect threshold defined as 30% inhibition at 10 μg/mL at the time point indicated) |
| Cc1ccc(-n2nc(C(C)(C)C)cc2NC(=O)Nc2ccc(OCc3ccnc(Nc4cnccn4)c3)c3ccccc23)cc1C(F)(F)F [Example 52] | > 15 | > 15 | 0.0187 | − (−ve and +ve indicate the value is below and above, respectively, the no significant effect threshold defined as 30% inhibition at 10 μg/mL at the time point indicated) | − (−ve and +ve indicate the value is below and above, respectively, the no significant effect threshold defined as 30% inhibition at 10 μg/mL at the time point indicated) |
| COc1ccc(-n2nc(C(C)(C)C)cc2NC(=O)Nc2ccc(OCc3ccnc(Nc4cnc(CO)cn4)c3)c3ccccc23)cc1 [Example 23] | 0.209 | 2.15 | 0.0031 | − (−ve and +ve indicate the value is below and above, respectively, the no significant effect threshold defined as 30% inhibition at 10 μg/mL at the time point indicated) | + (−ve and +ve indicate the value is below and above, respectively, the no significant effect threshold defined as 30% inhibition at 10 μg/mL at the time point indicated) |
| CC(C)(C)c1cc(NC(=O)Nc2ccc(OCc3ccnc(Nc4cnccn4)c3)c3ccccc23)n(-c2cccc(Cl)c2)n1 [Example 50] | 0.356 | 5.82 | 0.0071 | − (−ve and +ve indicate the value is below and above, respectively, the no significant effect threshold defined as 30% inhibition at 10 μg/mL at the time point indicated) | − (−ve and +ve indicate the value is below and above, respectively, the no significant effect threshold defined as 30% inhibition at 10 μg/mL at the time point indicated) |
| Cc1cc(-n2nc(C(C)(C)C)cc2NC(=O)Nc2ccc(OCc3ccnc(Nc4cncc(C5CC5)n4)c3)c3ccccc23)cs1 [Example 27] | 0.376 | 9.16 | 0.0043 | − (−ve and +ve indicate the value is below and above, respectively, the no significant effect threshold defined as 30% inhibition at 10 μg/mL at the time point indicated) | + (−ve and +ve indicate the value is below and above, respectively, the no significant effect threshold defined as 30% inhibition at 10 μg/mL at the time point indicated) |
| Cc1ccc(-n2nc(C(C)(C)C)cc2NC(=O)Nc2ccc(OCc3ccnc(Nc4cnc(C(=O)NCCN5CCOCC5)cn4)c3)c3ccccc23)cc1 [Example 17] | 0.074 | > 13.2 | 0.0127 | − (−ve and +ve indicate the value is below and above, respectively, the no significant effect threshold defined as 30% inhibition at 10 μg/mL at the time point indicated) | − (−ve and +ve indicate the value is below and above, respectively, the no significant effect threshold defined as 30% inhibition at 10 μg/mL at the time point indicated) |
| Cc1ccc(-n2nc(C(C)(C)C)cc2NC(=O)Nc2ccc(OCc3ccnc(Nc4cnccn4)c3)c3ccccc23)cc1C [Example 51] | 0.171 | > 16.3 | 0.0022 | − (−ve and +ve indicate the value is below and above, respectively, the no significant effect threshold defined as 30% inhibition at 10 μg/mL at the time point indicated) | − (−ve and +ve indicate the value is below and above, respectively, the no significant effect threshold defined as 30% inhibition at 10 μg/mL at the time point indicated) |
| CC(C)(C)c1cc(NC(=O)Nc2ccc(OCc3ccnc(Nc4cncc(C5CC5)n4)c3)c3ccccc23)n(-c2ccc(O)cc2)n1 [Example 34] | 0.274 | 4.26 | 0.0054 | − (−ve and +ve indicate the value is below and above, respectively, the no significant effect threshold defined as 30% inhibition at 10 μg/mL at the time point indicated) | − (−ve and +ve indicate the value is below and above, respectively, the no significant effect threshold defined as 30% inhibition at 10 μg/mL at the time point indicated) |
| Cc1ccc(-n2nc(C(C)(C)C)cc2NC(=O)Nc2ccc(OCc3ccnc(Nc4cncc(C5CC5)n4)c3)c3ccccc23)cc1 [Example 15] | 0.16 | > 15.7 | 0.0021 | − (−ve and +ve indicate the value is below and above, respectively, the no significant effect threshold defined as 30% inhibition at 10 μg/mL at the time point indicated) | − (−ve and +ve indicate the value is below and above, respectively, the no significant effect threshold defined as 30% inhibition at 10 μg/mL at the time point indicated) |
| COc1ccc(-n2nc(C(C)(C)C)cc2NC(=O)Nc2ccc(OCc3ccnc(Nc4cnccn4)c3)c3ccccc23)cc1C [Example 39] | 0.31 | > 15.9 | 0.0034 | − (−ve and +ve indicate the value is below and above, respectively, the no significant effect threshold defined as 30% inhibition at 10 μg/mL at the time point indicated) | − (−ve and +ve indicate the value is below and above, respectively, the no significant effect threshold defined as 30% inhibition at 10 μg/mL at the time point indicated) |
| Cc1ccc(-n2nc(C(C)(C)C)cc2NC(=O)Nc2ccc(OCc3ccnc(Nc4cnc(C(=O)N5CCOCC5)cn4)c3)c3ccccc23)cc1 [Example 35] | 0.171 | > 14 | 0.0121 | − (−ve and +ve indicate the value is below and above, respectively, the no significant effect threshold defined as 30% inhibition at 10 μg/mL at the time point indicated) | − (−ve and +ve indicate the value is below and above, respectively, the no significant effect threshold defined as 30% inhibition at 10 μg/mL at the time point indicated) |
